Assays:
[1] = tested on: A549-ACE2 infected with SARS-CoV-2; experiment: cell count relative to DMSO; higher = less toxic; conditions: 24 h
[2] = tested on: Caco-2; experiment: cell viability relative to DMSO; higher = less toxic; conditions: 72 h
[3] = tested on: Calu-3; experiment: as above; conditions: 72 h
[4] = tested on: HepG2; experiment: as above; conditions: 72 h
[5] = tested on: U2OS; experiment: as above; conditions: 72 h
[6] = tested on: Vero E6; experiment: as above; conditions: 72 h
[7] = tested on: A549-ACE2 infected with SARS-CoV-2; experiment: SARS-CoV-2 infection rate relative to DMSO; higher = more infection; conditions: 24 h
[8] = tested on: A549-ACE2; experiment: drug-induced phospholipidosis relative to tamoxifen; higher = more phospholipidosis
[9] = tested on: A549-ACE2 infected with SARS-CoV-2; experiment: morphology score (similarity to uninfected cells); higher = more like uninfected cells; conditions: 24 h
[10] = tested on: HepG2; experiment: relative viability EC50 (midpoint between 100% and the lowest measured viability); higher = less toxic; conditions: 72 h
[11] = tested on: U2OS; experiment: as above; conditions: 72 h
[12] = tested on: Vero E6; experiment: as above; conditions: 72 h
[13] = tested on: Caco-2; experiment: drug sensitivity score (DSS) for viability; higher = more toxic; extreme values may be limits of the assay; conditions: 72 h
[14] = tested on: Calu-3; experiment: as above; conditions: 72 h
[15] = tested on: HepG2; experiment: as above; conditions: 72 h
[16] = tested on: U2OS; experiment: as above; conditions: 72 h
[17] = tested on: Vero E6; experiment: as above; conditions: 72 h
[18] = tested on: A549-ACE2; experiment: phospholipidosis EC50; higher = less potent phospholipidosis inducer
[19] = tested on: Caco-2; experiment: relative viability EC50 (midpoint between 100% and the lowest measured viability); higher = less toxic; conditions: 72 h
[20] = tested on: Calu-3; experiment: as above; conditions: 72 h

COc1c(C)c2c(c(O)c1C/C=C(\C)CCC(=O)OCCN1CCOCC1)C(=O)OC2 [mycophenolate-mofetil]
Conditions | SARS-CoV-2 infection rate, [7] [%] | cell count, [1] [%] | cell viability, [2] [%] | cell viability, [3] [%] | cell viability, [4] [%] | cell viability, [5] [%] | cell viability, [6] [%] | morphology score, [9]
1 nM | – | – | 94.2 | 89.2 | 103 | 96.5 | 99 | –
10 nM | – | – | 101 | 102 | 101 | 97.9 | 98.4 | –
100 nM | – | – | 106 | 94.4 | 112 | 87.8 | 99.1 | –
0.3 µM | 97 | 102 | – | – | – | – | – | 0.22
1000 nM | – | – | 76 | 85.1 | 61.6 | 73.5 | 75.1 | –
3 µM | 78 | 80 | – | – | – | – | – | 0.12
10 µM | 81 | 94 | – | – | – | – | – | 0.22
10000 nM | – | – | 51.3 | 53.1 | 29.2 | 22.8 | 31.3 | –
30 µM | 65 | 92 | – | – | – | – | – | 0.37

drug-induced phospholipidosis [%], [8]
Conditions | 0.3 µM | 0.833333 µM | 3.33333 µM | 6.66667 µM | 10 µM | 30 µM
24 h | -1.99 | -10.6 | -14.8 | -15.8 | -12.1 | -11.3
48 h | 0.05 | -8.58 | – | – | – | –
72 h | 1.31 | -1.93 | – | – | – | –

Conditions | drug sensitivity score | relative viability EC50 [µM]
[10] | – | 0.938
[11] | – | 1.44
[12] | – | 1.25
[13] | 5.6 | –
[14] | 4.2 | –
[15] | 8.6 | –
[16] | 7.2 | –
[17] | 7.3 | –

CCn1c2ccccc2c2cc(CNC)ccc21 [PhiKan-083]
Conditions | SARS-CoV-2 infection rate [%] | cell count [%] | cell viability [%] | morphology score | phospholipidosis EC50 [µM]
[1], 0.3 µM | – | 103 | – | – | –
[1], 3 µM | – | 105 | – | – | –
[1], 10 µM | – | 117 | – | – | –
[1], 30 µM | – | 119 | – | – | –
[2], 1 nM | – | – | 102 | – | –
[2], 10 nM | – | – | 100 | – | –
[2], 100 nM | – | – | 102 | – | –
[2], 1000 nM | – | – | 105 | – | –
[2], 10000 nM | – | – | 108 | – | –
[3], 1 nM | – | – | 96.2 | – | –
[3], 10 nM | – | – | 99.9 | – | –
[3], 100 nM | – | – | 105 | – | –
[3], 1000 nM | – | – | 97.6 | – | –
[3], 10000 nM | – | – | 103 | – | –
[4], 1 nM | – | – | 98.2 | – | –
[4], 10 nM | – | – | 106 | – | –
[4], 100 nM | – | – | 97.4 | – | –
[4], 1000 nM | – | – | 99.3 | – | –
[4], 10000 nM | – | – | 68.3 | – | –
[5], 1 nM | – | – | 99.4 | – | –
[5], 10 nM | – | – | 100 | – | –
[5], 100 nM | – | – | 99.2 | – | –
[5], 1000 nM | – | – | 99.7 | – | –
[5], 10000 nM | – | – | 98.8 | – | –
[6], 1 nM | – | – | 98.5 | – | –
[6], 10 nM | – | – | 103 | – | –
[6], 100 nM | – | – | 98.7 | – | –
[6], 1000 nM | – | – | 99.9 | – | –
[6], 10000 nM | – | – | 90.8 | – | –
[7], 0.3 µM | 94 | – | – | – | –
[7], 3 µM | 79 | – | – | – | –
[7], 10 µM | 51 | – | – | – | –
[7], 30 µM | 16 | – | – | – | –
[9], 0.3 µM | – | – | – | 0.23 | –
[9], 3 µM | – | – | – | 0.46 | –
[9], 10 µM | – | – | – | 0.75 | –
[9], 30 µM | – | – | – | 0.82 | –
[18], 24 h | – | – | – | – | 5.19
[18], 48 h | – | – | – | – | 6.25
[18], 72 h | – | – | – | – | 6.91

drug-induced phospholipidosis [%], [8]
Conditions | 0.3 µM | 0.833333 µM | 3.33333 µM | 6.66667 µM | 10 µM | 30 µM
24 h | 2.5 | 2.35 | 26.5 | 64.2 | 83.4 | 97.2
48 h | 3.59 | 3.69 | 21.8 | 58.2 | 75.7 | 99.9
72 h | 3.02 | 2.71 | 17.3 | 49 | 70.8 | 95.9

Conditions | drug sensitivity score | relative viability EC50 [µM]
[11] | – | > 10
[12] | – | > 10
[13] | 0 | –
[14] | 0 | –
[15] | 1.5 | –
[16] | 0 | –
[17] | 0 | –
[19] | – | > 10
[20] | – | > 10

N=C(N)c1cc2ccc(OC(=O)c3cccs3)cc2s1 [BCX-1470]
Conditions | SARS-CoV-2 infection rate, [7] [%] | cell count, [1] [%] | cell viability, [2] [%] | cell viability, [4] [%] | cell viability, [5] [%] | cell viability, [6] [%] | morphology score, [9]
1 nM | – | – | 97.9 | 112 | 100 | 97 | –
10 nM | – | – | 96.1 | 100 | 100 | 95.2 | –
100 nM | – | – | 95.5 | 104 | 98.4 | 92.8 | –
0.3 µM | 97 | 102 | – | – | – | – | 0.05
1000 nM | – | – | 96.5 | 102 | 95.9 | 98.2 | –
3 µM | 99 | 99 | – | – | – | – | -0.11
10 µM | 54 | 95 | – | – | – | – | 0.59
10000 nM | – | – | 107 | 13.1 | 101 | 96.2 | –
30 µM | 22 | 52 | – | – | – | – | 0.39

drug-induced phospholipidosis [%], [8]
Conditions | 0.3 µM | 0.833333 µM | 3.33333 µM | 6.66667 µM | 10 µM
24 h | 1.95 | 3.92 | 0.54 | 7.05 | 10.8
48 h | 1.86 | -0.27 | -2.94 | 10.7 | 17.1
72 h | 0.245 | -2.66 | -0.938 | 1.04 | 8.25

Conditions | drug sensitivity score | relative viability EC50 [µM]
[10] | – | 3.32
[11] | – | > 10
[12] | – | > 10
[13] | 0 | –
[15] | 4.6 | –
[16] | 0 | –
[17] | 0 | –
[19] | – | > 10

C(#Cc1nc2ncccc2nc1OCCN1CCCC1)c1ccccc1 [GK921]
Conditions | SARS-CoV-2 infection rate, [7] [%] | cell count, [1] [%] | cell viability, [2] [%] | cell viability, [3] [%] | cell viability, [4] [%] | cell viability, [5] [%] | cell viability, [6] [%] | morphology score, [9]
1 nM | – | – | 100 | 98.7 | 92.4 | 97.1 | 97.2 | –
10 nM | – | – | 98.2 | 90.9 | 99.3 | 95.7 | 97.6 | –
0.1 µM | 100 | 101 | – | – | – | – | – | 0.03
100 nM | – | – | 101 | 93.1 | 102 | 99.2 | 94.9 | –
0.3 µM | 102 | 102 | – | – | – | – | – | -0.05
1 µM | 101 | 95 | – | – | – | – | – | 0.02
1000 nM | – | – | 99.5 | 93.3 | 74.5 | 72.2 | 103 | –
3 µM | 53 | 86 | – | – | – | – | – | 0.48
10000 nM | – | – | 3.8 | 2.5 | -0.3 | -0.2 | 0 | –

drug-induced phospholipidosis [%], [8]
Conditions | 24 h | 48 h | 72 h
0.3 µM | 2.77 | 8.46 | 11.7
0.833333 µM | 6.24 | 5.53 | 2.54

Conditions | drug sensitivity score | relative viability EC50 [µM]
[10] | – | 1.53
[11] | – | 1.46
[12] | – | 3.35
[13] | 5.4 | –
[14] | 6.4 | –
[15] | 9.4 | –
[16] | 9.7 | –
[17] | 5.3 | –
[19] | – | 3.13
[20] | – | 2.61

Source: the supplement of paper PMC13380429
